Measurements reported in US6403808B1, “Selective 5-HT6 receptor ligands” (priority 2001, dated 2002).
Counter-ions that a name gives are not always drawn. Like-named read-outs stand apart in the source and are kept apart here.

Columns and labels:
[1] = biological target: T1, rD4 (Rattus norvegicus, UniProt P30729); experiment: NIMH PDSP selectivity binding, rD4
T1 sequence (P30729 1-387): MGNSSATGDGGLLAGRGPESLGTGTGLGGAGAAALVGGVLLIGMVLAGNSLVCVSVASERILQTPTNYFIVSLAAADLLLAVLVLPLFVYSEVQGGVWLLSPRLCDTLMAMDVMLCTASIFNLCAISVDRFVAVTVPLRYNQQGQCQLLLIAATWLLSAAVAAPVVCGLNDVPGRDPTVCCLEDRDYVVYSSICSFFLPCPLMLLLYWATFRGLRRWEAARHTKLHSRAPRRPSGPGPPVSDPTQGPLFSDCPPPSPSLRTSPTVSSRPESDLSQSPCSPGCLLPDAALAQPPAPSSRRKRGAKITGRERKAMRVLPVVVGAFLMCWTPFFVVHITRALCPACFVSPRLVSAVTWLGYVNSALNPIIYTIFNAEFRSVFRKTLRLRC
Description: (§1) . […] NET and SERT represent the norepinephrine and serotonin transporters.

[2] = biological target: rD3 (Rattus norvegicus, UniProt P19020); experiment: NIMH PDSP selectivity binding, rD3
Chain of rD3 (P19020 whole entry): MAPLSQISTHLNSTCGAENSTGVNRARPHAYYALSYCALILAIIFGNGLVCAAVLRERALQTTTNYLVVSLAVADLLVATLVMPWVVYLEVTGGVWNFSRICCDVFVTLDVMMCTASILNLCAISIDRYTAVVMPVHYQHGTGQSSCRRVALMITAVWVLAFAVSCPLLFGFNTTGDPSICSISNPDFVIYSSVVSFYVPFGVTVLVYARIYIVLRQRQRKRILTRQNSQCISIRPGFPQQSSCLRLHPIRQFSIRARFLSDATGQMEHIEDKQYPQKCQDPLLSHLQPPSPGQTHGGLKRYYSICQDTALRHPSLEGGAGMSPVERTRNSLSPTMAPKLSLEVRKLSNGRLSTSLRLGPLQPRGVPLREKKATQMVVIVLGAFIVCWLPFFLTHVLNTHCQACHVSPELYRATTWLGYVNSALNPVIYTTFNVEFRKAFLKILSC
Description: as §1

[3] = biological target: rD2 (Rattus norvegicus, UniProt P61169); experiment: NIMH PDSP selectivity binding, rD2
Chain of rD2 (P61169 whole entry): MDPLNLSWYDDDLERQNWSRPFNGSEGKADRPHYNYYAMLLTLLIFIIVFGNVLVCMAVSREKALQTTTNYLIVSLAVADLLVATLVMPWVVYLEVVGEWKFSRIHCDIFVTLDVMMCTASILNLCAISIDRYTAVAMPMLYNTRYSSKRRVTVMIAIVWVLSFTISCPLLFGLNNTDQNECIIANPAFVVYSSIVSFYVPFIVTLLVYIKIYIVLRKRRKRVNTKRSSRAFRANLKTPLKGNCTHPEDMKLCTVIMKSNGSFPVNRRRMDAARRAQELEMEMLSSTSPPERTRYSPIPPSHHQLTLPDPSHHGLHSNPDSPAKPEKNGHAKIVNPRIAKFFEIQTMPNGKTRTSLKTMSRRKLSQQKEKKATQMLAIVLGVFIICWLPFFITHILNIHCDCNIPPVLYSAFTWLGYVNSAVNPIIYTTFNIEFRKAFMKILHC
Description: as §1

[4] = biological target: hD5 (Homo sapiens, UniProt P21918); experiment: NIMH PDSP selectivity binding, hD5
Chain of hD5 (P21918 whole entry): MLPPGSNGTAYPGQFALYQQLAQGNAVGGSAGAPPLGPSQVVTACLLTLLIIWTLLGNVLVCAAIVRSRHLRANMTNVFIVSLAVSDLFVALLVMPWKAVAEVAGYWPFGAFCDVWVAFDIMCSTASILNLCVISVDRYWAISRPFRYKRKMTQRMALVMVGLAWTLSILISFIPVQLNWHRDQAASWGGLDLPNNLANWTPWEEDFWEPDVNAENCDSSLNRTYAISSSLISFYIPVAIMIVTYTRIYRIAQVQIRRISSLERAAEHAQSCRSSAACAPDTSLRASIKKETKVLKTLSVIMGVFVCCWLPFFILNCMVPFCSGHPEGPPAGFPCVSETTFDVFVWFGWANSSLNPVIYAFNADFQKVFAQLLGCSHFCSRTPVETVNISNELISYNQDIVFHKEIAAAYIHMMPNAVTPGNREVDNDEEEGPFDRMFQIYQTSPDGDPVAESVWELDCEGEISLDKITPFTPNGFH
Description: as §1

[5] = biological target: hD1 (Homo sapiens, UniProt P21728); experiment: NIMH PDSP selectivity binding, hD1
Chain of hD1 (P21728 whole entry): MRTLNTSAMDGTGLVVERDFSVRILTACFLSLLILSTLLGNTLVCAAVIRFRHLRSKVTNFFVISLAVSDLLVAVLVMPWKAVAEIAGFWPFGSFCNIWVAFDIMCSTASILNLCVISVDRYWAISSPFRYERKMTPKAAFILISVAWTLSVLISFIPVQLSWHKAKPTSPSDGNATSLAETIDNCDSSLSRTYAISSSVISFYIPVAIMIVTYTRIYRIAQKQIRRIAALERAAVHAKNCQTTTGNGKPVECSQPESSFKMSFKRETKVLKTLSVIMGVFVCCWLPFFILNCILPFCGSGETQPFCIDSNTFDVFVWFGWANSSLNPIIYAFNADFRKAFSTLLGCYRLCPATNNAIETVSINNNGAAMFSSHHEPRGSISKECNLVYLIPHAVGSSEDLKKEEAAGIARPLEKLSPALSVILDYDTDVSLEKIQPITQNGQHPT
Description: as §1

[6] = biological target: T2, human 5-HT6 (Homo sapiens, UniProt P50406); experiment: biochemical; type: binding
T2 construct: expressed in transfected cells; host or cells: HEK 293
T2 sequence (P50406 whole entry): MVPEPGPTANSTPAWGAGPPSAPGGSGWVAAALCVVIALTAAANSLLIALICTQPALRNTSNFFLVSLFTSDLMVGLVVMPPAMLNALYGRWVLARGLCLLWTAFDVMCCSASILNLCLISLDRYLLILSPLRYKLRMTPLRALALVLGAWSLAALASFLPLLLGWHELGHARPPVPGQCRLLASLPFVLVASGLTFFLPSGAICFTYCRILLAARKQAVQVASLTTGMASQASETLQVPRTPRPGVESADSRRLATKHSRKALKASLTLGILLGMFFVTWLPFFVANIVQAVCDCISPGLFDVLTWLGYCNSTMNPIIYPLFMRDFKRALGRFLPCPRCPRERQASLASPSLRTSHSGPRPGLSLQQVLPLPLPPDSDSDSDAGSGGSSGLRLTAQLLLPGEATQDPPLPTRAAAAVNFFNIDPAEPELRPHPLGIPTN

[7] = biological target: T3, 5-HT3 receptors (Homo sapiens, UniProt P46098); experiment: Affinity at 5-HT3 receptors; type: binding
T3 sequence (P46098 24-478): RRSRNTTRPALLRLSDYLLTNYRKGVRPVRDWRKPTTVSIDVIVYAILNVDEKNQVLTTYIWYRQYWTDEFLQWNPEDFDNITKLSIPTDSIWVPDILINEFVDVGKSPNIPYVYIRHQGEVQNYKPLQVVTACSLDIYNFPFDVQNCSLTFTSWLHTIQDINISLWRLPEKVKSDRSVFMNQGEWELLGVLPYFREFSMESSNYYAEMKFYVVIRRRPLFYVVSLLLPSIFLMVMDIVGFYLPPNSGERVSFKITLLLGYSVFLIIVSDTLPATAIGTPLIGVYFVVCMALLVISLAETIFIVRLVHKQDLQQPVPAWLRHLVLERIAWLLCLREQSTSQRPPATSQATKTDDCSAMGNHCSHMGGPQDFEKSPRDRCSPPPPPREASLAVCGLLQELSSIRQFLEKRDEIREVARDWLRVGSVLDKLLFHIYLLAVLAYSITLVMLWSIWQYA

[8] = biological target: T4, Human 5-HT6 receptors stably expressed in 293 HEK cells (Homo sapiens, UniProt P50406); experiment: cAMP activation assay (adenylate cyclase activity); type: cell-based; details: 5-HT6 receptor
T4 construct: expressed in transfected cells; host or cells: HEK 293
T4 sequence (P50406 whole entry): as the sequence (P50406 whole entry) above
Protocol: Human 5-HT6 receptors stably expressed in 293 HEK cells were grown in 24-well plates to near confluence and 18 h prior to the assay the medium was replaced with DMEM containing dialyzed 10% Fetal Calf Serum. For the assay, the medium was aspirated and replaced with fresh DMEM without serum and incubated with various concentrations of compounds of the invention in a total volume of 0.5 ml for 15 min. The assay was terminated by aspiration and the addition of 10% trichloroacetic acid (TCA). The TCA extract was used for cAMP determinations. (Data represent the mean of N=4 separate determinations). Results of cAMP activation by various compounds of the invention are shown in the attached Drawing of FIG. 1.

SMILES: CCc1[nH]c2ccc(OC)cc2c1CCN(C)C [Compound B, 2-ethyl-5-methoxy-N,N-dimethyltryptamine maleate]
- Ki [1]: > 10 µM
- Ki [2]: > 10 µM
- Ki [3]: > 10 µM
- Ki [4]: > 10 µM
- Ki [5]: > 10 µM

SMILES: COc1ccc2[nH]c(C)c(CCN(C)C)c2c1 [Compound A, 2-methyl-5-methoxy-N,N-dimethyltryptamine]
- Ki [1]: > 10 µM
- Ki [2]: > 10 µM
- Ki [3]: > 10 µM
- Ki [4]: > 10 µM
- Ki [5]: > 10 µM

SMILES: COc1ccc2[nH]c(-c3ccccc3)c(CCN(C)C)c2c1 [Compound D, 5-methoxy-2-phenyl-N,N-dimethyltryptamine oxalate]
- Ki ([1]; rD4, read-out: Ki): ≥ 10 µM
- Ki ([3]; rD2, read-out: Ki): ≥ 10 µM
- Ki ([5]; hD1, read-out: Ki): ≥ 10 µM

SMILES: COc1ccc2c(c1)c(CCN(C)C)c1n2CCCC1=O [I, 6,7,8,9-tetrahydro-2-methoxy-10-(N,N-dimethylaminoethyl)pyridol[1,2-a]indole-9-one Oxalate]
- Ki ([6]; human 5-HT6 in HEK 293, [3H]LSD, third table, read-out: Ki): 0.084 µM

SMILES: COc1ccc2[nH]c(C)c(CCN)c2c1 [5-methoxy-2-methyltryptamine, reference compound]
- affinity for 5-HT3 receptors (in words) [7]: lacks affinity
- affinity for the 5-HT6 receptor (in words) [6]: affinity comparable to 2-methyl-5-HT

SMILES: Cc1[nH]c2ccc(O)cc2c1CCN [2-methyl-5-HT, reference compound]
- greater affinity at 5-HT6 than at 5-HT3 receptors ([7]; 5-HT6 over 5-HT3): 20 fold
- affinity for the 5-HT6 receptor (in words) [6]: high affinity
- affinity for the 5-HT6 receptor (in words) ([6]; listed as 2-methyly-5-HT): affinity equivalent to that of the parent compound

SMILES: COc1ccc2[nH]c(-c3ccccc3)c(CCN)c2c1 [5-methoxy-2-phenylotryptamine]
- effect on adenylate cyclase activity (in words) [8]: antagonist to 5-HT stimulated adenylate cyclase activity
- affinity for the 5-HT6 receptor (in words) [6]: high affinity

SMILES: Cc1[nH]c2ccccc2c1CCN(C)C [2-methyl-N,N-dimethyltryptamine]
- Ki ([6]; read-out: affinity for the 5-HT6 receptor, Ki): 0.308 µM
